Data on ten compounds can be found in patent US8841466B2, “Series of artemisinin derivatives and process for preparation thereof” (Council of Scientific & Industrial Research, priority 2010, dated 2014).

In test [1] the test system is Colon Colo-205. Nature of the test: In vitro cytotoxicity (sulforhodamine B) against human cancer cell lines, Colon Colo-205. The format is cell-based. Conditions: read-out: % GROWTH INHIBITION Colon Colo-205; for inhibition at 50 µM: Conc 5 × 10^−5 M, 48 hours. The procedure: (§1) The human cancer cell lines procured from National Cancer Institute, Frederick, U.S.A., were used in present study. Cells were grown in tissue culture flasks in complete growth medium (RPMI-1640 medium with 2 mM glutamine, 100 μg/mL streptomycin, pH 7.4, sterilized by filtration and supplemented with 10% fetal bovine serum and 100 units/ml penicillin before use) at 37° C. in an atmosphere of 5% CO2 and 90% relative humidity in a carbon dioxide incubator. The cells at subconfluent stage were harvested from the flask by treatment with trypsin (0.05% in PBS containing 0.02% EDTA) for determination of cytotoxicity. The cell suspension of the required cell density was prepared in complete growth medium with gentamycin (50 μg/mL) for determination of cytotoxicity.
(§2) Stock solutions of 2×10^−2M of test materials were prepared in DMSO. The stock solutions were serially diluted with complete growth medium containing 50 μg/ml of gentamycin to obtain working test solution of 2×10^−5M to obtain final concentration of 1×10^−5 M respectively.
(§3) In vitro cytotoxicity against human cancer cell lines was determined (Monks of al., J. Natl. Cancer Inst. 1991, 83, 757-766). The 100 μL of cell suspension was added to each well of the 96-well tissue culture plate. The cells were incubated for 24 hours (at 37° C. in an atmosphere of 5% CO2 and 90% relative humidity in a carbon dioxide incubator). Test materials in complete growth medium (100 μL) were added after 24 hours incubation to the wells containing cells. The plates were further incubated for 48 hours in a carbon dioxide incubator after addition of test material. The cell growth was stopped by gently layering trichloroacetic acid (50 μL, 50% w/v) on top of the medium in all the wells. The plates were incubated at 4° C. for one hour to fix the cells attached to the bottom of the wells. The liquid of all the wells was then gently decanted and discarded. The plates were washed five times with distilled water and air-dried. Cell growth was measured by staining with sulforhodamine B dye (Skehan et al., J. Natl. Cancer Inst. 1990, 82, 1107-1112). The adsorbed dye was dissolved in Tris-Buffer (100 μL, 0.01M, pH 10.4) and plates were gently stirred for 10 minutes on a mechanical stirrer. The optical density (OD) was recorded on ELISA reader at 540 nm.
(§4) The cell growth was calculated by subtracting mean OD value of respective blank from the mean OD value of experimental set. Percent growth in presence of test material was calculated considering the growth in absence of any test material as 100% and in turn percent growth inhibition in presence of test material was calculated. Suitable blank, controls and positive controls were included in the study.

Test [2] relates to Ovary IGR-OV-1. Nature of the test: In vitro cytotoxicity (sulforhodamine B) against human cancer cell lines, Ovary IGR-OV-1. The format is cell-based. Conditions: IGROV-1, Conc 5 × 10^−5 M, 48 hours, read-out: % GROWTH INHIBITION Ovary IGR-OV-1. The procedure: as §1, §2, §3, §4
The test system of test [3] is Breast MCF-7. Nature of the test: In vitro cytotoxicity (sulforhodamine B) against human cancer cell lines, Breast MCF-7. Type of test: cell-based. The following applies: read-out: % GROWTH INHIBITION Breast MCF-7; for inhibition at 50 µM: MCF7, Conc 5 × 10^−5 M, 48 hours. The procedure: as §1, §2, §3, §4
In test [4] the test system is Prostrate DU-145. The test is described as follows: In vitro cytotoxicity (sulforhodamine B) against human cancer cell lines, Prostrate DU-145. Type of test: cell-based. Conditions: read-out: % GROWTH INHIBITION Prostrate DU-145; for inhibition at 50 µM: Conc 5 × 10^−5 M, 48 hours. The procedure: as §1, §2, §3, §4
Test [5] has as its system Neuroblastoma IMR-32. Nature of the test: In vitro cytotoxicity (sulforhodamine B) against human cancer cell lines, Neuroblastoma IMR-32. Type of test: cell-based. Conditions: read-out: % GROWTH INHIBITION Neuroblastoma IMR-32; for inhibition at 50 µM: Conc 5 × 10^−5 M, 48 hours. The procedure: as §1, §2, §3, §4
For test [6], the system named is Prostrate PC-3. The test is described as follows: In vitro cytotoxicity (sulforhodamine B) against human cancer cell lines, Prostrate PC-3. The following applies: read-out: % GROWTH INHIBITION Prostrate PC-3; for inhibition at 50 µM: Conc 5 × 10^−5 M, 48 hours. The format is cell-based. The procedure: as §1, §2, §3, §4
Test [7] concerns Lung A-549. The test is described as follows: In vitro cytotoxicity (sulforhodamine B) against human cancer cell lines, Lung A-549. The format is cell-based. Conditions: read-out: % GROWTH INHIBITION Lung A-549; for inhibition at 50 µM: A549, Conc 5 × 10^−5 M, 48 hours. The procedure: as §1, §2, §3, §4
Test [8] has as its system P388 leukemia. The following applies: NCI Report on NSC 369397, 25 Oct. 1983; cited from earlier work.
In test [9] the test system is cell line panels consisting of 60 lines. The following applies: nine disease-related subpanels; cited from earlier work.
In test [10] the test system is Ehrlich ascites tumor (EAT) cells. Conditions: MTT assay, read-out: IC50 (drug concentration causing 50% growth inhibition of the tumor cells); cited from earlier work.
Setting [11] is: Conc 1 × 10^−5 M, positive control.

In the case of `O=c1[nH]cc(F)c(=O)[nH]1` [5-Fluorouracil, reference compound], in [1] (Conc 2 × 10^−5 M, positive control), the inhibition at 20 µM was 54%.
Regarding `C=C(C(C)=O)[C@H](O)C[C@H]1O[C@@H]2O[C@]3(C)CC[C@H]4[C@H](C)CC[C@@H]([C@H]1C)[C@@]24OO3` [Compound 3c], the inhibition at 50 µM in test [1] stood at 100%; in test [2], 33%; in [3], 66%; in test [4], 73%; in test [5] it was 79%; in test [6], 81%. The inhibition at 50 µM in [7] amounted to 85%.
Consider `C=C(C#N)[C@@H](O)C[C@H]1O[C@@H]2O[C@]3(C)CC[C@H]4[C@H](C)CC[C@@H]([C@H]1C)[C@@]24OO3` (single isomer, unassigned) [Compound 3b′], for which the inhibition at 50 µM in test [1] came to 75%; in test [2], 56%; in test [3], 55%; in test [4], 60%; in test [5] it was 62%; in test [6] it was 78%. Further, the inhibition at 50 µM in test [7] was determined as 77%.
As for `C[C@@H]1CC[C@H]2[C@@H](C)C(=O)O[C@@H]3O[C@@]4(C)CC[C@@H]1[C@]32OO4` [Artemisinin, artemisinin], the inhibition at 50 µM in test [1] turned out to be 40%; in test [2] it was 26%; in test [3], 34%; in test [4], 38%; in test [5], 23%; in test [6] it was 22%. Further, in test [7], the inhibition at 50 µM came to 29%. Besides, the “activity against P388 leukemia” value in test [8] was “inactive”. The “anticancer activity on 60 cell line panels” value in test [9] was “very little anticancer activity”. Also, the IC50 in [10] was 29.8 µM.
As for `COc1cccc2c1C(=O)c1c(O)c3c(c(O)c1C2=O)C[C@@](O)(C(=O)CO)C[C@@H]3O[C@H]1C[C@H](N)[C@H](O)[C@H](C)O1` [Adriamycin, reference compound], the inhibition at 1 µM in [3] (MCF7, Conc 1 × 10^−6 M, positive control) worked out at 72%; in test [5] (Conc 1 × 10^−6 M, positive control), 70%.
Take `CO[C@@]12[C@H](COC(N)=O)C3=C(C(=O)C(C)=C(N)C3=O)N1C[C@@H]1N[C@@H]12` [Mitomycin, reference compound]: the figures for the inhibition at 10 µM in [4] (setting [11]) and in test [6] (setting [11]) were 92% and 54%, respectively.
`C[C@H]1[C@@H](C[C@@H](O)C2=CCCCC2=O)O[C@@H]2O[C@]3(C)CC[C@H]4[C@H](C)CC[C@@H]1[C@@]24OO3` [Compound 3d]: the inhibition at 50 µM worked out at 63% in [1]; 60% in [2]; 43% in test [3]; 52% in [4]; 72% in test [5]; 68% in [6]. The inhibition at 50 µM in [7] was determined as 66%.
As to `C=C(C#N)[C@H](O)C[C@H]1O[C@@H]2O[C@]3(C)CC[C@H]4[C@H](C)CC[C@@H]([C@H]1C)[C@@]24OO3` (single isomer, unassigned) [Compound 3b], the inhibition at 50 µM in test [1] was determined as 56%; in test [2], 42%; in test [3] it was 46%; in test [4], 46%; in [5] it was 48%; in [6] it was 65%. In [7], the inhibition at 50 µM was 66%.
Consider `CC(=O)O[C@H]1C(=O)[C@@]2(C)[C@H]([C@H](OC(=O)c3ccccc3)[C@]3(O)C[C@H](OC(=O)[C@H](O)[C@@H](NC(=O)c4ccccc4)c4ccccc4)C(C)=C1C3(C)C)[C@]1(OC(C)=O)CO[C@@H]1C[C@@H]2O` [Paclitaxel, reference compound], for which the inhibition at 10 µM in test [7] (A549, Conc 1 × 10^−5 M, positive control) is 69%.
Consider `C=C(C(=O)OC)[C@H](O)C[C@H]1O[C@@H]2O[C@]3(C)CC[C@H]4[C@H](C)CC[C@@H]([C@H]1C)[C@@]24OO3` [Compound 3a], for which the inhibition at 50 µM in [2] was found to be 63%; in test [5] it was 56%; in test [7], 70%.

By inhibition is commonly meant how much of the control response was suppressed.
